In patent US9833497B2, “Human originated EGF domain proteins and use of the same” (CHENGDU SOURCEBIO LIMITED-LIABILITY COMPANY, priority 2013, dated 2017):

Columns and labels:
Assay type in all cases: cell-based
[1] = test system: Serratia marcescens; assay: MIC against Gram-negative bacteria: Serratia marcescens; conditions: 5×10^5 CFU/mL; for MIC S. marcescens: two-fold serial dilution; for MIC against S. marcescens: Serratia marcescens
Summary of the method: (§1)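 The recombinant human-originated EGF domain proteins were serially diluted two-fold against bacteria at 5×10^5 CFU/mL in LB medium. After shaken incubation at 37° C, the lowest concentration with no bacterial growth was recorded as the MIC.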

[2] = test system: Proteus mirabilis; assay: MIC against Gram-negative bacteria: Proteus mirabilis; conditions: 5×10^5 CFU/mL; for MIC P. mirabilis: two-fold serial dilution; for MIC against P. mirabilis: Proteus mirabilis
Summary of the method: as §1

[3] = test system: Aeromonas hydrophila; assay: MIC against Gram-negative bacteria: Aeromonas hydrophila; conditions: 5×10^5 CFU/mL; for MIC A. hydrophila: two-fold serial dilution; for MIC against A. hydrophila: Aeromonas hydrophila
Summary of the method: as §1

[4] = test system: Citrobacter diversus; assay: MIC against Gram-negative bacteria: Citrobacter diversus; conditions: 5×10^5 CFU/mL; for MIC C. diversus: two-fold serial dilution; for MIC against C. diversus: Citrobacter diversus
Summary of the method: as §1

[5] = test system: Enterobacter cloacae; assay: MIC against Gram-negative bacteria: Enterobacter cloacae; conditions: 5×10^5 CFU/mL; for MIC E. cloacae: two-fold serial dilution; for MIC against E. cloacae: Enterobacter cloacae
Summary of the method: as §1

[6] = test system: Proteus vulgaris; assay: MIC against Gram-negative bacteria: Proteus vulgaris; conditions: 5×10^5 CFU/mL; for MIC P. vulgaris: two-fold serial dilution; for MIC against P. vulgaris: Proteus vulgaris
Summary of the method: as §1

[7] = test system: E. coli DH5α; assay: Antibacterial activity: MIC and growth curve against E. coli DH5α in 96-well plate; conditions: minimal inhibitory concentration against E. coli DH5α; 96-well plate, 5×10^5 CFU/mL, 37° C., judged after 8 h
Summary of the method: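 MIC taken as lowest protein level with no bacterial growth, tracked by A600 every 30 min during 37 °C, 175 rpm culture. Two-fold protein series 50-12.5 μg/mL final, triplicate wells, against 5×10^5 CFU/mL of LB-washed mid-log cells.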

[8] = test system: Pseudomonas aeruginosa; assay: MIC against Gram-negative bacteria: Pseudomonas aeruginosa; conditions: 5×10^5 CFU/mL; for MIC P. aeruginosa: two-fold serial dilution; for MIC against P. aeruginosa: Pseudomonas aeruginosa
Summary of the method: as §1

[9] = test system: Moraxella catarrhalis; assay: MIC against Gram-negative bacteria: Moraxella catarrhalis; conditions: 5×10^5 CFU/mL; for MIC M. catarrhalis: two-fold serial dilution; for MIC against M. catarrhalis: Moraxella catarrhalis
Summary of the method: as §1

[10] = test system: Klebsiella pneumonia; assay: MIC against Gram-negative bacteria: Klebsiella pneumonia; conditions: 5×10^5 CFU/mL; for MIC K. pneumonia: two-fold serial dilution; for MIC against K. pneumonia: Klebsiella pneumonia
Summary of the method: as §1

[11] = test system: E. coli BL21; assay: MIC against Gram-negative bacteria: E. coli BL21; conditions: 5×10^5 CFU/mL; for MIC E. coli BL21: two-fold serial dilution
Summary of the method: as §1

PRT1107 (LMPLCWSKPCHNNATCEDSVDNYTCHCWPGYTGAQCE; listed as Homo sapiens)
25 µg/mL: MIC S. marcescens ([1]; 10 h cultivation at 37° C.) | MIC E. cloacae ([5]; 10 h cultivation at 37° C.)
50 µg/mL: MIC P. mirabilis ([2]; 10 h cultivation at 37° C.) | MIC C. diversus ([4]; 10 h cultivation at 37° C.) | MIC K. pneumonia ([10]; 10 h cultivation at 37° C.) | MIC E. coli BL21 ([11]; 10 h cultivation at 37° C.)
12.5 µg/mL: MIC A. hydrophila ([3]; 10 h cultivation at 37° C.) | MIC P. vulgaris ([6]; 10 h cultivation at 37° C.) | MIC [7] | MIC P. aeruginosa ([8]; 10 h cultivation at 37° C.) | MIC M. catarrhalis ([9]; 10 h cultivation at 37° C.)

PRT1444 (HHIPCPEHYNGFCMHGKCEHSINMQEPSCRCDAGYTGQHCE; listed as Homo sapiens)
25 µg/mL: MIC against S. marcescens ([1]; 10 h cultivation at 37° C.) | MIC against P. mirabilis ([2]; 10 h cultivation at 37° C.) | MIC against A. hydrophila ([3]; 10 h cultivation at 37° C.) | MIC against K. pneumonia ([10]; 10 h cultivation at 37° C.) | MIC against E. coli BL21 ([11]; 10 h cultivation at 37° C.)
50 µg/mL: MIC against C. diversus ([4]; 10 h cultivation at 37° C.) | MIC against P. vulgaris ([6]; 10 h cultivation at 37° C.) | MIC against P. aeruginosa ([8]; 10 h cultivation at 37° C.)
12.5 µg/mL: MIC against E. cloacae ([5]; 10 h cultivation at 37° C.) | MIC [7] | MIC against M. catarrhalis ([9]; 10 h cultivation at 37° C.)

PRT1282 (SLDSCSSGPCENGGTCHAQEGEDAPFTCSCPTGFEGPTCG; listed as Homo sapiens)
12.5 µg/mL: MIC against P. mirabilis ([2]; 96-well plate, 37° C., 10 h) | MIC against A. hydrophila ([3]; 96-well plate, 37° C., 10 h) | MIC [7] | MIC against P. aeruginosa ([8]; 96-well plate, 37° C., 10 h)
25 µg/mL: MIC against E. cloacae ([5]; 96-well plate, 37° C., 10 h) | MIC against P. vulgaris ([6]; 96-well plate, 37° C., 10 h) | MIC against M. catarrhalis ([9]; 96-well plate, 37° C., 10 h)
50 µg/mL: MIC against S. marcescens ([1]; 96-well plate, 37° C., 10 h) | MIC against C. diversus ([4]; 96-well plate, 37° C., 10 h) | MIC against K. pneumonia ([10]; 96-well plate, 37° C., 10 h) | MIC against E. coli BL21 ([11]; 96-well plate, 37° C., 10 h)

PRT1288 (ADGPCHGHKCVHGQCVPLDALSYSCQCQDGYSGALCN; listed as Homo sapiens)
50 µg/mL: MIC against E. cloacae ([5]; 96-well plate, 37° C., 10 h) | MIC [7] | MIC against M. catarrhalis ([9]; 96-well plate, 37° C., 10 h)
12.5 µg/mL: MIC against S. marcescens ([1]; 96-well plate, 37° C., 10 h) | MIC against P. mirabilis ([2]; 96-well plate, 37° C., 10 h) | MIC against A. hydrophila ([3]; 96-well plate, 37° C., 10 h) | MIC against C. diversus ([4]; 96-well plate, 37° C., 10 h) | MIC against P. aeruginosa ([8]; 96-well plate, 37° C., 10 h)
25 µg/mL: MIC against P. vulgaris ([6]; 96-well plate, 37° C., 10 h) | MIC against K. pneumonia ([10]; 96-well plate, 37° C., 10 h) | MIC against E. coli BL21 ([11]; 96-well plate, 37° C., 10 h)

PRT1173 (KCIPHPGCVHGICNEPWQCLCETNWGGQLCD; listed as Homo sapiens)
50 µg/mL: MIC S. marcescens ([1]; 10 h cultivation at 37° C.) | MIC P. mirabilis ([2]; 10 h cultivation at 37° C.) | MIC C. diversus ([4]; 10 h cultivation at 37° C.)
25 µg/mL: MIC K. pneumonia ([10]; 10 h cultivation at 37° C.) | MIC E. coli BL21 ([11]; 10 h cultivation at 37° C.)
12.5 µg/mL: MIC A. hydrophila ([3]; 10 h cultivation at 37° C.) | MIC E. cloacae ([5]; 10 h cultivation at 37° C.) | MIC P. vulgaris ([6]; 10 h cultivation at 37° C.) | MIC [7] | MIC P. aeruginosa ([8]; 10 h cultivation at 37° C.) | MIC M. catarrhalis ([9]; 10 h cultivation at 37° C.)

PRT1097 (NIDECFSNPCIHGNCSDRVAAYHCTCEPGYTGVNCE; listed as Homo sapiens)
100 µg/mL: MIC M. catarrhalis ([9]; 10 h cultivation at 37° C.)
25 µg/mL: MIC S. marcescens ([1]; 10 h cultivation at 37° C.) | MIC P. mirabilis ([2]; 10 h cultivation at 37° C.) | MIC C. diversus ([4]; 10 h cultivation at 37° C.) | MIC E. cloacae ([5]; 10 h cultivation at 37° C.) | MIC [7] | MIC P. aeruginosa ([8]; 10 h cultivation at 37° C.)
12.5 µg/mL: MIC A. hydrophila ([3]; 10 h cultivation at 37° C.) | MIC P. vulgaris ([6]; 10 h cultivation at 37° C.) | MIC K. pneumonia ([10]; 10 h cultivation at 37° C.) | MIC E. coli BL21 ([11]; 10 h cultivation at 37° C.)

PRT1442 (DKDECAKDNGGCQHECVNTFGSYLCRCRNGYWLHENGHDCK; listed as Homo sapiens)
25 µg/mL: MIC against S. marcescens ([1]; 10 h cultivation at 37° C.) | MIC against P. mirabilis ([2]; 10 h cultivation at 37° C.) | MIC against A. hydrophila ([3]; 10 h cultivation at 37° C.) | MIC against C. diversus ([4]; 10 h cultivation at 37° C.)
50 µg/mL: MIC against M. catarrhalis ([9]; 10 h cultivation at 37° C.) | MIC against K. pneumonia ([10]; 10 h cultivation at 37° C.)
12.5 µg/mL: MIC against E. cloacae ([5]; 10 h cultivation at 37° C.) | MIC against P. vulgaris ([6]; 10 h cultivation at 37° C.) | MIC [7] | MIC against P. aeruginosa ([8]; 10 h cultivation at 37° C.) | MIC against E. coli BL21 ([11]; 10 h cultivation at 37° C.)
